“And” between values parts separate entries of the source, which are not always exact repeats. Equal values may be shown once. Inconclusive results and toxic doses are left out. Peptide text beside a SMILES is read from it. * marks the point of attachment. Cbz = O=C(OCc1ccccc1)*; Bn = c1ccc(C*)cc1
Tested on: L1210 leukemia ip in BDF1 mice, survival T/C
Assay: NCI In Vivo Anticancer Drug Screen. Data for tumor model L1210 Leukemia (intraperitoneal) in B6D2F1 (BDF1) mice
Conditions: endpoint: mean survival time, higher = longer survival
How it was run: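 In this screen, tumor-bearing mice given compound are compared to those given vehicle, and their survival values are reported as a treated-to-control quotient.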

[1] = dose: 100.0 mg/kg/injection, schedule: Q04DX002 (ip), vehicle: Klucel (hydroxypropylcellulose) (HPC)
[2] = dose: 100.0 mg/kg/injection, schedule: Q04DX002 (ip), vehicle: carboxymethylcellulose (CMC)
[3] = dose: 200.0 mg/kg/injection, schedule: Q04DX002 (ip), vehicle: Klucel (hydroxypropylcellulose) (HPC)
[4] = dose: 200.0 mg/kg/injection, schedule: Q04DX002 (ip), vehicle: carboxymethylcellulose (CMC)
[5] = dose: 400.0 mg/kg/injection, schedule: Q04DX002 (ip), vehicle: Klucel (hydroxypropylcellulose) (HPC)
[6] = dose: 400.0 mg/kg/injection, schedule: Q04DX002 (ip), vehicle: carboxymethylcellulose (CMC)
[7] = dose: 100.0 mg/kg/injection, schedule: Q01DX009 (ip), vehicle: Klucel (hydroxypropylcellulose) (HPC)
[8] = dose: 200.0 mg/kg/injection, schedule: Q01DX009 (ip), vehicle: Klucel (hydroxypropylcellulose) (HPC)
[9] = dose: 400.0 mg/kg/injection, schedule: Q01DX009 (ip), vehicle: Klucel (hydroxypropylcellulose) (HPC)
[10] = dose: 100.0 mg/kg/injection, schedule: Q04DX003 (ip), vehicle: saline
[11] = dose: 200.0 mg/kg/injection, schedule: Q04DX003 (ip), vehicle: saline
[12] = dose: 25.0 mg/kg/injection, schedule: Q01DX009 (ip), vehicle: saline with Tween-80
[13] = dose: 50.0 mg/kg/injection, schedule: Q01DX009 (ip), vehicle: saline with Tween-80
[14] = dose: 100.0 mg/kg/injection, schedule: Q01DX009 (ip), vehicle: saline with Tween-80
[15] = dose: 200.0 mg/kg/injection, schedule: Q01DX009 (ip), vehicle: saline with Tween-80
[16] = dose: 100.0 mg/kg/injection, schedule: Q04DX003 (ip), vehicle: saline with Tween-80
[17] = dose: 12.5 mg/kg/injection, schedule: Q01DX009 (ip), vehicle: saline with Tween-80
[18] = dose: 50.0 mg/kg/injection, schedule: Q04DX003 (ip), vehicle: saline with Tween-80
[19] = dose: 100.0 mg/kg/injection, schedule: Q04DX003 (ip), vehicle: Klucel (hydroxypropylcellulose) (HPC)
[20] = dose: 100.0 mg/kg/injection, schedule: Q01DX001 (ip), vehicle: saline
[21] = dose: 200.0 mg/kg/injection, schedule: Q01DX001 (ip), vehicle: saline
[22] = dose: 400.0 mg/kg/injection, schedule: Q01DX001 (ip), vehicle: saline

Cc1ccc(C(O)c2cnc(C)n2Cc2ccccc2)cc1 (stereo not drawn)
T/C (dose: 100.0 mg/kg/injection, schedule: Q01DX009 (ip), vehicle: carboxymethylcellulose (CMC)): 96 % of control
T/C [1]: 94 % of control
T/C [2]: 94 % of control and 112 % of control
T/C (dose: 100.0 mg/kg/injection, schedule: Q04DX003 (ip), vehicle: carboxymethylcellulose (CMC)): 107 % of control
T/C (dose: 200.0 mg/kg/injection, schedule: Q01DX009 (ip), vehicle: carboxymethylcellulose (CMC)): 100 % of control and 107 % of control
T/C [3]: 109 % of control
T/C [4]: 94 % of control and 98 % of control
T/C (dose: 200.0 mg/kg/injection, schedule: Q04DX003 (ip), vehicle: carboxymethylcellulose (CMC)): 92 % of control
T/C (dose: 400.0 mg/kg/injection, schedule: Q01DX009 (ip), vehicle: carboxymethylcellulose (CMC)): 96 % of control and 86 % of control
T/C [5]: 88 % of control
T/C [6]: 94 % of control and 95 % of control
T/C (dose: 400.0 mg/kg/injection, schedule: Q04DX003 (ip), vehicle: carboxymethylcellulose (CMC)): 96 % of control

CCC12C=CCN3CCC4(c5cc(C(c6ccc(OC)cc6)c6cc7ccccc7n6S(=O)(=O)c6ccccc6)c(OC)cc5N(C)C4C(O)(C(=O)OC)C1OC(C)=O)C32 (stereo not drawn)
T/C (dose: 50.0 mg/kg/injection, schedule: Q04DX002 (ip), vehicle: Klucel (hydroxypropylcellulose) (HPC)): 98 % of control
T/C [1]: 98 % of control
T/C [3]: 102 % of control

O=C(Nc1cccc(C(F)(F)F)c1)Nc1cccc2ccc(O)cc12
T/C [7]: 107 % of control
T/C [8]: 106 % of control
T/C [9]: 98 % of control

SCCCCN1CCCCC1
T/C (dose: 3.0 mg/kg/injection, schedule: Q01DX001 (ip), vehicle: carboxymethylcellulose (CMC)): 102 % of control
T/C (dose: 6.0 mg/kg/injection, schedule: Q01DX001 (ip), vehicle: carboxymethylcellulose (CMC)): 100 % of control
T/C (dose: 12.0 mg/kg/injection, schedule: Q01DX001 (ip), vehicle: carboxymethylcellulose (CMC)): 107 % of control
T/C (dose: 25.0 mg/kg/injection, schedule: Q01DX001 (ip), vehicle: carboxymethylcellulose (CMC)): 95 % of control

O=C(O)C(Oc1ccc(Cl)cc1Cl)C(Oc1ccc(Cl)cc1Cl)C(=O)O (stereo not drawn)
T/C [2]: 98 % of control
T/C [4]: 88 % of control
T/C [5]: 155 % of control
T/C [6]: 92 % of control
T/C (dose: 800.0 mg/kg/injection, schedule: Q04DX002 (ip), vehicle: carboxymethylcellulose (CMC)): 98 % of control

CCCCCSC
T/C (dose: 100.0 mg/kg/injection, schedule: Q01DX009 (ip), vehicle: saline): 93 % of control
T/C [10]: 102 % of control
T/C (dose: 200.0 mg/kg/injection, schedule: Q01DX009 (ip), vehicle: saline): 95 % of control
T/C [11]: 105 % of control
T/C (dose: 400.0 mg/kg/injection, schedule: Q01DX009 (ip), vehicle: saline): 88 % of control
T/C (dose: 400.0 mg/kg/injection, schedule: Q04DX003 (ip), vehicle: saline): 100 % of control

OC(Cc1ccc2ccccc2n1)C(Cl)(Cl)Cl (stereo not drawn)
T/C [12]: 103 % of control
T/C [13]: 91 % of control
T/C [7]: 101 % of control
T/C [14]: 101 % of control
T/C [8]: 93 % of control
T/C [15]: 89 % of control
T/C [9]: 101 % of control
T/C (dose: 400.0 mg/kg/injection, schedule: Q01DX009 (ip), vehicle: saline with Tween-80): 114 % of control

CC(C)CC(O)CC(C)C
T/C [16]: 95 % of control
T/C (dose: 118.0 mg/kg/injection, schedule: Q01DX009 (ip), vehicle: saline with Tween-80): 108 % of control
T/C (dose: 200.0 mg/kg/injection, schedule: Q04DX003 (ip), vehicle: saline with Tween-80): 93 % of control
T/C (dose: 250.0 mg/kg/injection, schedule: Q01DX009 (ip), vehicle: saline with Tween-80): 102 % of control
T/C (dose: 400.0 mg/kg/injection, schedule: Q04DX003 (ip), vehicle: saline with Tween-80): 90 % of control

COC(=O)C(CC(C)C)NC(=O)C(N)Cc1ccc(OCc2ccccc2)cc1 (stereo not drawn) (H-Tyr(Bn)-Leu-OMe; configuration not given here)
T/C (dose: 6.25 mg/kg/injection, schedule: Q01DX009 (ip), vehicle: saline with Tween-80): 111 % of control
T/C [17]: 111 % of control
T/C [12]: 106 % of control and 90 % of control
T/C (dose: 25.0 mg/kg/injection, schedule: Q04DX003 (ip), vehicle: saline with Tween-80): 98 % of control
T/C [18]: 104 % of control
T/C [16]: 96 % of control and 102 % of control

CCCCNc1c(C2=NCCN2)cnc2c1cnn2CC
T/C (dose: 25.0 mg/kg/injection, schedule: Q04DX003 (ip), vehicle: Klucel (hydroxypropylcellulose) (HPC)): 92 % of control
T/C (dose: 50.0 mg/kg/injection, schedule: Q04DX003 (ip), vehicle: Klucel (hydroxypropylcellulose) (HPC)): 99 % of control
T/C [19]: 90 % of control and 92 % of control

O=C(NC(=S)Nc1ccc(F)cc1)c1cccc([N+](=O)[O-])c1
T/C [17]: 97 % of control and 98 % of control
T/C [12]: 94 % of control and 97 % of control
T/C [18]: 100 % of control
T/C (dose: 100.0 mg/kg/injection, schedule: Q01DX001 (ip), vehicle: saline with Tween-80): 97 % of control
T/C (dose: 100.0 mg/kg/injection, schedule: Q04DX002 (ip), vehicle: saline with Tween-80): 101 % of control
T/C [16]: 97 % of control
T/C (dose: 200.0 mg/kg/injection, schedule: Q01DX001 (ip), vehicle: saline with Tween-80): 95 % of control
T/C (dose: 200.0 mg/kg/injection, schedule: Q04DX002 (ip), vehicle: saline with Tween-80): 93 % of control and 97 % of control

COc1cc(C=O)ccc1OCCCOc1ccc(C=O)cc1OC
T/C [13]: 104 % of control
T/C [14]: 93 % of control
T/C [15]: 101 % of control

CC(=O)N(C)C1=C(Sc2ccc(C)cc2)C(=O)c2ccccc2C1=O
T/C (dose: 150.0 mg/kg/injection, schedule: Q01DX001 (ip), vehicle: carboxymethylcellulose (CMC)): 93 % of control

Cc1[nH]ccc2cc3nc4ccccc4c3cc12
T/C (dose: 50.0 mg/kg/injection, schedule: Q01DX001 (ip), vehicle: saline): 103 % of control
T/C [20]: 104 % of control
T/C [21]: 102 % of control
T/C [22]: 103 % of control

COc1ccc(OC)c(NC(=O)Nc2cccc(Cl)c2Cl)c1
T/C [19]: 86 % of control
T/C (dose: 200.0 mg/kg/injection, schedule: Q04DX003 (ip), vehicle: Klucel (hydroxypropylcellulose) (HPC)): 90 % of control
T/C (dose: 400.0 mg/kg/injection, schedule: Q04DX003 (ip), vehicle: Klucel (hydroxypropylcellulose) (HPC)): 88 % of control

COC(=O)C(CC(C)C)NC(=O)C(CC(N)=O)NC(=O)C(NC(=O)OCc1ccccc1)C(C)C (stereo not drawn) (Cbz-Val-Asn-Leu-OMe; configuration not given here)
T/C [20]: 95 % of control
T/C [21]: 91 % of control
T/C [22]: 91 % of control

[O-][n+]1ccc2ccccc2c1
T/C (dose: 50.0 mg/kg/injection, schedule: Q01DX005 (ip), vehicle: Klucel (hydroxypropylcellulose) (HPC)): 102 % of control
T/C (dose: 50.0 mg/kg/injection, schedule: Q01DX009 (ip), vehicle: Klucel (hydroxypropylcellulose) (HPC)): 101 % of control
T/C (dose: 100.0 mg/kg/injection, schedule: Q01DX001 (ip), vehicle: other): 110 % of control
T/C (dose: 100.0 mg/kg/injection, schedule: Q01DX005 (ip), vehicle: Klucel (hydroxypropylcellulose) (HPC)): 97 % of control
T/C [7]: 108 % of control
T/C [1]: 106 % of control
T/C [10]: 111 % of control
T/C (dose: 200.0 mg/kg/injection, schedule: Q01DX001 (ip), vehicle: other): 100 % of control
T/C (dose: 200.0 mg/kg/injection, schedule: Q01DX005 (ip), vehicle: Klucel (hydroxypropylcellulose) (HPC)): 105 % of control
T/C [8]: 111 % of control
T/C [3]: 109 % of control
T/C [11]: 114 % of control
T/C (dose: 400.0 mg/kg/injection, schedule: Q01DX001 (ip), vehicle: other): 103 % of control

Cc1ccc(C)c(Cn2cnc3c(=S)nc[nH]c32)c1
T/C [1]: 94 % of control
T/C [3]: 94 % of control
T/C [5]: 88 % of control

— PubChem BioAssay AID248 (DTP/NCI, 2004)
